Data: ChEMBL document CHEMBL3616371, “Synthesis of BF₃ catalyzed Mannich derivatives with excellent ee from phenylpropanolamine, study of their antimicrobial activity and molecular docking” (2015)
≈ marks a conversion by molar mass, not a printed value.

Key:
[1] = test system: Staphylococcus aureus; test: Antibacterial activity against Staphylococcus aureus assessed as growth inhibition at 1 mg/well after 24 hrs by Well method; format: functional
[2] = test system: Staphylococcus epidermidis; test: Antibacterial activity against Staphylococcus epidermidis assessed as growth inhibition at 1 mg/well after 24 hrs by Well method; format: functional
[3] = test system: Staphylococcus aureus; test: Antibacterial activity against methicillin-resistant Staphylococcus aureus assessed as growth inhibition at 1 mg/well after 24 hrs by Well method; format: functional
[4] = test system: Salmonella typhimurium; test: Antibacterial activity against Salmonella typhimurium assessed as growth inhibition at 1 mg/well after 24 hrs by Well method; format: functional, Salmonella enterica subsp. enterica serovar Typhimurium
[5] = test system: Proteus vulgaris; test: Antibacterial activity against Proteus vulgaris assessed as growth inhibition at 1 mg/well after 24 hrs by Well method; format: functional
[6] = test system: Micrococcus luteus; test: Antibacterial activity against Micrococcus luteus assessed as growth inhibition at 1 mg/well after 24 hrs by Well method; format: functional
[7] = test system: Shigella flexneri; test: Antibacterial activity against Shigella flexneri assessed as growth inhibition at 1 mg/well after 24 hrs by Well method; format: functional
[8] = test system: Bacillus subtilis; test: Antibacterial activity against Bacillus subtilis assessed as growth inhibition at 1 mg/well after 24 hrs by Well method; format: functional
[9] = test system: Pseudomonas aeruginosa; test: Antibacterial activity against Pseudomonas aeruginosa assessed as growth inhibition at 1 mg/well after 24 hrs by Well method; format: functional
[10] = test system: Candida albicans; test: Antifungal activity against Candida albicans assessed as growth inhibition at 1 mg/well after 48 hrs by Well method; format: functional
[11] = test system: Staphylococcus aureus; test: Antibacterial activity against Staphylococcus aureus after 24 hrs by two fold serial dilution method; format: functional
[12] = test system: Staphylococcus epidermidis; test: Antibacterial activity against Staphylococcus epidermidis after 24 hrs by two fold serial dilution method; format: functional
[13] = test system: Staphylococcus aureus; test: Antibacterial activity against methicillin-resistant Staphylococcus aureus after 24 hrs by two fold serial dilution method; format: functional
[14] = test system: Salmonella typhimurium; test: Antibacterial activity against Salmonella typhimurium after 24 hrs by two fold serial dilution method; format: functional, Salmonella enterica subsp. enterica serovar Typhimurium; conditions: Salmonella enterica
[15] = test system: Proteus vulgaris; test: Antibacterial activity against Proteus vulgaris after 24 hrs by two fold serial dilution method; format: functional
[16] = test system: Micrococcus luteus; test: Antibacterial activity against Micrococcus luteus after 24 hrs by two fold serial dilution method; format: functional
[17] = test system: Klebsiella pneumoniae; test: Antibacterial activity against Klebsiella pneumoniae after 24 hrs by two fold serial dilution method; format: functional
[18] = test system: Shigella flexneri; test: Antibacterial activity against Shigella flexneri after 24 hrs by two fold serial dilution method; format: functional
[19] = test system: Bacillus subtilis; test: Antibacterial activity against Bacillus subtilis after 24 hrs by two fold serial dilution method; format: functional
[20] = test system: Pseudomonas aeruginosa; test: Antibacterial activity against Pseudomonas aeruginosa after 24 hrs by two fold serial dilution method; format: functional
[21] = test system: Aspergillus flavus; test: Antifungal activity against Aspergillus flavus after 48 to 72 hrs by two fold serial dilution method; format: functional
[22] = test system: Klebsiella aerogenes; test: Antibacterial activity against Enterobacter aerogenes assessed as growth inhibition at 1 mg/well after 24 hrs by Well method; format: functional
[23] = test system: Klebsiella aerogenes; test: Antibacterial activity against Enterobacter aerogenes after 24 hrs by two fold serial dilution method; format: functional
[24] = test system: Malassezia pachydermatis; test: Antifungal activity against Malassezia pachydermatis assessed as growth inhibition at 1 mg/well after 48 hrs by Well method; format: functional
[25] = test system: Aspergillus flavus; test: Antifungal activity against Aspergillus flavus assessed as growth inhibition at 1 mg/well after 48 hrs by Well method; format: functional
[26] = test system: Candida albicans; test: Antifungal activity against Candida albicans after 48 to 72 hrs by two fold serial dilution method; format: functional
[27] = test system: Malassezia pachydermatis; test: Antifungal activity against Malassezia pachydermatis after 48 to 72 hrs by two fold serial dilution method; format: functional
[28] = test system: Klebsiella pneumoniae; test: Antibacterial activity against Klebsiella pneumoniae assessed as growth inhibition at 1 mg/well after 24 hrs by Well method; format: functional
[29] = test system: Salmonella enterica subsp. enterica serovar Paratyphi B; test: Antibacterial activity against Salmonella paratyphi B assessed as growth inhibition at 1 mg/well after 24 hrs by Well method; format: functional

| Compound | inhibition zone (IZ) [1] [mm] | inhibition zone (IZ) [2] [mm] | inhibition zone (IZ) [3] [mm] | inhibition zone (IZ) [4] [mm] | inhibition zone (IZ) [5] [mm] | inhibition zone (IZ) [6] [mm] | inhibition zone (IZ) [7] [mm] | inhibition zone (IZ) [8] [mm] | inhibition zone (IZ) [9] [mm] | MIC [11] [µg/mL] | MIC [12] [µg/mL] | MIC [13] [µg/mL] | MIC [14] [µg/mL] | MIC [15] [µg/mL] | MIC [16] [µg/mL] | MIC [18] [µg/mL] | MIC [19] [µg/mL] | MIC [20] [µg/mL] | inhibition zone (IZ) [22] [mm] | MIC [23] [µg/mL] | also measured |
| --- | --- | --- | --- | --- | --- | --- | --- | --- | --- | --- | --- | --- | --- | --- | --- | --- | --- | --- | --- | --- | --- |
| C[C@H](NCCC(=O)c1ccc(Cl)cc1Cl)[C@H](O)c1ccccc1.Cl | 36 | 35 | 31 | 30 | 32 | 35 | 31 | 30 | 29 | 25 | 25 | 25 | 25 | 25 | 25 | 25 | 25 | 25 | 34 | 25 | inhibition zone (IZ) [10]: 22 mm; MIC [17]: > 50 µg/mL; MIC [21]: 25 µg/mL |
| CC(=O)N1CCN(c2ccc(OCC3COC(Cn4ccnc4)(c4ccc(Cl)cc4Cl)O3)cc2)CC1 (stereo not given) [KETOCONAZOLE] |  |  |  |  |  |  |  |  |  |  |  |  |  |  |  |  |  |  |  |  | inhibition zone (IZ) [10]: 28 mm; inhibition zone (IZ) [24]: 26 mm; inhibition zone (IZ) [25]: 24 mm; MIC [26]: 25 µg/mL (≈ 47 µM); MIC [27]: 25 µg/mL (≈ 47 µM); MIC [21]: < 12.5 µg/mL |
| C[C@@H](NCCC(=O)c1ccccc1)[C@@H](O)c1ccccc1.Cl | 22 | 26 | 28 | 22 | 24 | 28 | 22 | 20 | 22 | 25 | 12.5 | 6.25 | 25 | 25 | 12.5 | 25 | 25 | 12.5 | 20 | 50 | inhibition zone (IZ) [28]: 19 mm; inhibition zone (IZ) [10]: 15 mm; inhibition zone (IZ) [24]: 14 mm; MIC [17]: 50 µg/mL; MIC [26]: 50 µg/mL; MIC [27]: 50 µg/mL |
| Cc1ccc(C(=O)CCN[C@@H](C)[C@H](O)c2ccccc2)cc1.Cl | 22 | 24 | 23 | 23 | 24 | 22 | 22 | 18 | 20 | 3.13 | 3.13 | 3.13 | 3.13 | 3.13 | 3.13 | 3.13 | 6.25 | 3.13 | 24 | 3.13 | inhibition zone (IZ) [28]: 13 mm; inhibition zone (IZ) [25]: 22 mm; MIC [21]: 50 µg/mL |
| COc1ccc(C(=O)CCN[C@H](C)[C@@H](O)c2ccccc2)cc1.Cl | 20 | 24 | 22 | 18 | 22 | 19 | 24 | 22 | 18 | 12.5 | 6.25 | 6.25 | 25 | 12.5 | 12.5 | 25 | 25 | 25 | 19 | 12.5 | inhibition zone (IZ) [29]: 14 mm; inhibition zone (IZ) [28]: 16 mm; inhibition zone (IZ) [25]: 16 mm; MIC [17]: > 50 µg/mL; MIC [27]: > 50 µg/mL; MIC [21]: 50 µg/mL |
| Cc1ccc(C(=O)CCN[C@H](C)[C@@H](O)c2ccccc2)cc1.Cl | 24 | 31 | 28 | 25 | 28 | 22 | 20 | 22 | 23 | 25 | 3.13 | 6.25 | 12.5 | 6.25 | 25 | 50 | 12.5 | 12.5 | 27 | 12.5 | inhibition zone (IZ) [28]: 15 mm; inhibition zone (IZ) [25]: 20 mm; MIC [17]: 50 µg/mL; MIC [21]: 50 µg/mL |
| C[C@H](NCCC(=O)c1cccc(O)c1)[C@H](O)c1ccccc1.Cl | 24 | 28 | 23 | 22 | 24 | 35 | 22 | 23 | 22 | 25 | 6.25 | 25 | 25 | 25 | 3.13 | 25 | 12.5 | 12.5 | 22 | 25 | inhibition zone (IZ) [28]: 24 mm; MIC [17]: 25 µg/mL |
| C[C@@H](NCCC(=O)c1cccc([N+](=O)[O-])c1)[C@@H](O)c1ccccc1.Cl | 14 | 18 | 16 | 18 | 20 | 18 | 19 | 18 | 17 | 50 | 50 | 50 | 50 | 50 | 50 | 50 | 25 | 50 | 17 | 50 | inhibition zone (IZ) [10]: 15 mm; inhibition zone (IZ) [24]: 21 mm; MIC [26]: 50 µg/mL; MIC [27]: 25 µg/mL |
| C[C@H](NCCC(=O)c1ccccc1)[C@H](O)c1ccccc1.Cl | 27 | 34 | 27 | 26 | 25 | 30 | 20 | 18 | 20 | 12.5 | 3.13 | 12.5 | 12.5 | 12.5 | 6.25 | 50 | 25 | 25 | 28 | 6.25 | inhibition zone (IZ) [28]: 21 mm; inhibition zone (IZ) [10]: 16 mm; inhibition zone (IZ) [24]: 12 mm; MIC [17]: 25 µg/mL; MIC [26]: 50 µg/mL; MIC [27]: > 50 µg/mL |
| C[C@@H](NCCC(=O)c1cccc(O)c1)[C@@H](O)c1ccccc1.Cl | 20 | 24 | 22 | 20 | 22 | 34 | 21 | 20 | 20 | 50 | 25 | 25 | 50 | 25 | 3.13 | 25 | 25 | 25 | 21 | 25 | inhibition zone (IZ) [28]: 20 mm; inhibition zone (IZ) [24]: 14 mm; MIC [17]: 50 µg/mL; MIC [27]: > 50 µg/mL |
| C[C@@H](NCCC(=O)c1ccc(Cl)cc1)[C@@H](O)c1ccccc1.Cl | 36 | 36 | 33 | 30 | 32 | 29 | 30 | 24 | 23 | 3.13 | 3.13 | 3.13 | 6.25 | 3.13 | 6.25 | 6.25 | 12.5 | 12.5 | 34 | 3.13 | inhibition zone (IZ) [28]: 18 mm; inhibition zone (IZ) [10]: 24 mm; inhibition zone (IZ) [24]: 15 mm; MIC [17]: 50 µg/mL; MIC [26]: 12.5 µg/mL; MIC [27]: 50 µg/mL |
